Data from patent US20070287848A1, “Silicon Compound Containi-Electron Conjugated-System Molecule and Process for Producing the Same” (priority 2004, published 2007).

How the values were obtained:
Solubility in THF = format: physicochemical; conditions: in 1 ml of THF
Solubility in toluene = format: physicochemical; conditions: in 1 ml of toluene; for solubility relative to that of Th4-SiCl3: ratio to Th4-SiCl3

CCCCCCCCCCCCCCCCCCc1ccc(-c2ccc(-c3ccc([Si](Cl)(Cl)Cl)cc3)cc2)cc1 [C18-P3-SiCl3]
solubility relative to that of P3-SiCl3 (Solubility in THF; ratio to P3-SiCl3): about 2.8 times

CCCCCCCCCCCCCCCCCCc1ccc(-c2ccc(-c3ccc(-c4ccc([Si](OCC)(OCC)OCC)s4)s3)s2)s1 [C18-Th4-Si(OC2H5)3]
solubility relative to that of Th4-SiCl3 (Solubility in toluene): about 10 times

CCCCCCCCCCCCCCCCCCc1ccc(-c2ccc(-c3ccc(-c4ccc([Si](OC)(OC)OC)s4)s3)s2)s1 [C18-Th4-Si(OCH3)3]
solubility relative to that of Th4-SiCl3 (Solubility in toluene): about 9.5 times

Cl[Si](Cl)(Cl)c1ccc(-c2ccc(-c3ccccc3)cc2)cc1 [P3-SiCl3, reference compound]
solubility (Solubility in THF): about 2.0 mg/ml

Cl[Si](Cl)(Cl)c1ccc(-c2ccc(-c3ccc(-c4cccs4)s3)s2)s1 [Th4-SiCl3, reference compound]
solubility (Solubility in toluene): about 1.0 mg/ml
